Data set [1] has as its system cornea-epithelial barrier. The following applies: dexpanthenol-bearing eye drops; barrier disturbed by insufficient tear film; Klinische Monatsblätter für Augenheilkunde (1996) 209; 84-88; cited from earlier work.
For another data set, the system named is cornea epithelium. The experiment in a line: wound healing after injury to the cornea epithelium or cauterisation of the cornea. Format: in vivo. The following applies: less scarring.
Data set [2] can be described thus: tear film tearing time (fluorescein, slit lamp). The following applies: concentration of 0.1% by weight to 0.3% by weight. It is filed as in vivo. The source says:
A further diagnostic parameter in regard to diagnosis of the “dry eye” syndrome is the tear film tearing time which makes it possible to provide information about the quality of the tear fluid. In that case for example the tear film is dyed with fluorescein and the patient is then asked to keep the eyes open as long as possible without a blink reflex. A slit lamp is then used to establish when the tear film tears open for the first time. If the period of time is less than 10 seconds, there is the suspicion of the “dry eye” syndrome.

For data set [3] the following is noted: eye drops containing at least 0.1% of sodium hyaluronate; Jpn. J. Ophthalmol. (1996) 40: 62-65; cited from earlier work.
The nature of data set [4]: subjective feeling of patients when treating dry eyes. Format: in vivo. Conditions: 0.1% by weight of sodium hyaluronate in the composition. The source says:
Aqueous sodium hyaluronate solutions are fluids with non-Newtonian flow properties. By virtue of that physical property, aqueous sodium hyaluronate solutions are excellently well suited as slip and lubricating agents with a good cling effect and a prolonged residence time on the conjunctival and corneal epithelia, without adversely affecting visual efficiency.

Data set [5] concerns cornea epithelium cells of rabbits. The experiment in a line: epithelium cell migration. Format: cell-based. The following applies: 0.1% by weight sodium hyaluronate solution.

This is an account of results in patent publication US20050164979A1, “Pharmaceutical composition for ophthalmological and rhinological application” (priority 2001, published 2005).

As for `CC(C)(CO)[C@@H](O)C(=O)NCCCO` [dexpanthenol, D-(+)-2,4-dihydroxy-N-(3-hydroxypropyl)-3,5-dimethylbutyramide], the cornea-epithelial barrier function entry in data set [1] is on record as “improve the cornea-epithelial barrier function”.
As for hyaluronic acid, the wound healing result in the data set with cornea epithelium is “faster and better wound healing”. Moreover, the “prolonging the tear film tearing time” value in data set [2] is recorded as “highly effective”.
For the compound sodium hyaluronate, the tear film stability result in data set [3] is reported as “improvement in tear film stability”. Moreover, the wound healing entry in the data set with cornea epithelium is “faster and better wound healing”. Besides, the “subjective feeling of the patients” value in data set [4] is reported as “considerably improves”. For the same compound, in data set [5], the epithelium cell migration entry is recorded as “increased epithelium cell migration”.
